Results on 3 compounds are retold here after PubChem BioAssay (NCI).

Among the test systems are OVCAR-5 ovarian; HT29 colon; CAKI-1 renal; HCC-2998 colon; RPMI-8226 leukemia; PC-3 prostate; UACC-257 melanoma; KM12 colon; CCRF-CEM leukemia; SK-MEL-2 melanoma.
Assay in all cases: growth of human tumour cells (NCI), 48 h

“And” between values parts separate entries of the source, which are not always exact repeats. Equal entries are not always repeated.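 96-well plates; 48 h exposure; 5 concentrations. Endpoints by linear interpolation between flanking doses. Not reached: highest tested concentration assigned. GI50 = concentration required for 50% inhibition of growth. TGI: total growth inhibition.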

With `Oc1ccc(-c2nc3ccc4[nH]ncc4c3c3c2CCCC3)c2cccnc12`, the GI50 with OVCAR-5 ovarian was 1160 nM; in the assay on HT29 colon, 1090 nM; in the assay with CAKI-1 renal, 120 nM; in the assay on HCC-2998 colon, 319 nM; with RPMI-8226 leukemia, 158 nM; with PC-3 prostate, 389 nM. Moreover, the GI50 in the assay with UACC-257 melanoma is 888 nM; with KM12 colon it was 311 nM; in the assay on CCRF-CEM leukemia, 204 nM; with SK-MEL-2 melanoma, 452 nM. Further, the TGI in the assay with OVCAR-5 ovarian turned out to be 14700 nM; with HT29 colon it was 6730 nM; in the assay with CAKI-1 renal it was 886 nM; in the assay with HCC-2998 colon, 5450 nM; in the assay with RPMI-8226 leukemia it was 4120 nM; with PC-3 prostate it was 6560 nM. For the same compound, the TGI in the assay on UACC-257 melanoma was found to be 3680 nM; in the assay on KM12 colon it was 7930 nM; in the assay with CCRF-CEM leukemia, 11800 nM; in the assay on SK-MEL-2 melanoma, 3500 nM.

As to `COc1ccc(Cn2cc(Cn3c(=O)c(-c4nc5ccccc5[nH]4)cc4ccccc43)nn2)c(OC)c1OC`, the GI50 in the assay on OVCAR-5 ovarian was 201 nM and 329 nM; in the assay on HT29 colon, 71.2 nM; in the assay on CAKI-1 renal, 350 nM and 396 nM; in the assay with HCC-2998 colon, 174 nM and 291 nM; in the assay on RPMI-8226 leukemia, 129 nM; in the assay on PC-3 prostate, 313 nM. The GI50 in the assay on UACC-257 melanoma was 796 nM and 2220 nM; with KM12 colon, 226 nM and 186 nM; in the assay on CCRF-CEM leukemia it was 174 nM and 443 nM; in the assay on SK-MEL-2 melanoma, 676 nM. The TGI was 1230 nM and 1530 nM with OVCAR-5 ovarian; 4050 nM in the assay on HT29 colon; 1470 nM and 3920 nM in the assay on CAKI-1 renal; 1200 nM and 2070 nM with HCC-2998 colon; 1150 nM with RPMI-8226 leukemia; above 100000 nM in the assay on PC-3 prostate. The TGI was 1390 nM and 1480 nM in the assay on KM12 colon; 2210 nM in the assay on SK-MEL-2 melanoma.

As to `COc1ccc(-c2nn(-c3cccc(NC(=O)Nc4cccc(C(F)(F)F)c4)c3)cc2-c2ccncc2)cc1Cl`, the GI50 with OVCAR-5 ovarian is 3730 nM; in the assay with HT29 colon it was 2240 nM; in the assay with CAKI-1 renal, 1770 nM; in the assay with HCC-2998 colon, 5320 nM; in the assay with RPMI-8226 leukemia it was 1020 nM; in the assay with PC-3 prostate it was 986 nM. Besides, the GI50 is 2280 nM in the assay with UACC-257 melanoma, 1470 nM in the assay with KM12 colon, 1540 nM in the assay with CCRF-CEM leukemia and 2370 nM in the assay on SK-MEL-2 melanoma. Further, the TGI with OVCAR-5 ovarian is above 100000 nM; with HT29 colon, 49100 nM; in the assay on CAKI-1 renal, above 100000 nM; with HCC-2998 colon, above 100000 nM; with RPMI-8226 leukemia it was 4540 nM; with PC-3 prostate it was 8540 nM. Also, the TGI was 10800 nM in the assay on UACC-257 melanoma, 5230 nM in the assay on KM12 colon, 7590 nM in the assay with CCRF-CEM leukemia and 5230 nM in the assay on SK-MEL-2 melanoma.
